Test results taken from ChEMBL document CHEMBL5154767, “Discovery of dual-target ligands binding to beta2-adrenoceptor and cysteinyl-leukotriene receptor for the potential treatment of asthma from natural products derived DNA-encoded library” (Eur J Med Chem, 2022).
Active and inactive are the calls of the source. The rule behind the calls is not given here.

Columns and labels:
[1] = target: T1, Uracil nucleotide/cysteinyl leukotriene receptor (Homo sapiens, UniProt Q13304)
Description: Binding affinity to immobilized Halo tag-fused CysLT receptor (unknown origin) expressed in Escherichia coli BL21 (DE3) assessed as retention time by chromatography

Mus musculus [2] = assay: Anti-asthmatic activity against ovalbumin-induced asthmatic mouse model assessed as infiltration of inflammatory cells in the perivascular and peribronchiolar region of lungs at 2.6 mg/kg, po administered once daily for 7 days by H and E staining based light microscopic analysis; format: functional, organism-based; settings: time 7.0 day
Mus musculus [3] = assay: Anti-asthmatic activity against ovalbumin-induced asthmatic mouse model assessed as decrease in IgE level in serum at 2.6 mg/kg, po administered once daily for 7 days by ELISA; format: functional, organism-based; settings: time 7.0 day
Mus musculus [4] = assay: Anti-asthmatic activity against ovalbumin-induced asthmatic mouse model assessed as decrease in IL-4 level in BALF at 2.6 mg/kg, po administered once daily for 7 days by ELISA; format: functional, organism-based; settings: time 7.0 day
Mus musculus [5] = assay: Anti-asthmatic activity against ovalbumin-induced asthmatic mouse model assessed as decrease in IL-5 level in BALF at 2.6 mg/kg, po administered once daily for 7 days by ELISA; format: functional, organism-based; settings: time 7.0 day
Mus musculus [6] = assay: Increase in beta2 adrenoceptor expression in bronchus in ovalbumin-induced asthmatic mouse model at 2.6 mg/kg, po administered once daily for 7 days by Western blot analysis; format: functional, organism-based; settings: time 7.0 day
[7] = target: T2, Beta-2 adrenergic receptor (Homo sapiens, UniProt P07550); assay: Binding affinity to immobilized Halo tag-fused beta2 adrenoceptor (unknown origin) expressed in Escherichia coli BL21 (DE3) assessed as retention time by chromatography
Target sequence in this assay (P07550 whole entry, looked up, the tested form may be a part): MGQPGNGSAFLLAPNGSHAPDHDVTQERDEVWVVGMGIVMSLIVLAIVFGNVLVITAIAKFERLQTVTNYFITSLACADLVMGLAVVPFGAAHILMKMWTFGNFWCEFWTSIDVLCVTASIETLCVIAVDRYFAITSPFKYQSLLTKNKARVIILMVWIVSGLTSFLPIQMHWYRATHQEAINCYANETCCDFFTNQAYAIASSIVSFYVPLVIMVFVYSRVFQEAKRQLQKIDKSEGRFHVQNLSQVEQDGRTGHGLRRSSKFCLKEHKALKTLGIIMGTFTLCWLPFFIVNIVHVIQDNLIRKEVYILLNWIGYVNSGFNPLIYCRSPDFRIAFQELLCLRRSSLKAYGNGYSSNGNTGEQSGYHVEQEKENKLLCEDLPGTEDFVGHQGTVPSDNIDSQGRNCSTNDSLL

[8] = target: T2, Beta-2 adrenergic receptor; assay: Binding affinity to immobilized Halo tag-fused beta2 adrenoceptor (unknown origin) expressed in Escherichia coli BL21 (DE3) by receptor chromatography
Target sequence in this assay (P07550 whole entry, looked up, the tested form may be a part): as above

[9] = target: T2, Beta-2 adrenergic receptor; assay: Binding affinity to immobilized Halo tag-fused beta2 adrenoceptor (unknown origin) expressed in Escherichia coli BL21 (DE3) assessed as dissociation rate constant by receptor chromatography
Target sequence in this assay (P07550 whole entry, the tested form may be a part): as the sequence (P07550 whole entry, looked up, the tested form may be a part) above

[10] = target: T2, Beta-2 adrenergic receptor; assay: Binding affinity to immobilized Halo tag-fused beta2 adrenoceptor (unknown origin) expressed in Escherichia coli BL21 (DE3) assessed as association rate constant by receptor chromatography
Target sequence in this assay (P07550 whole entry, looked up, the tested form may be a part): as above

Mus musculus [11] = assay: Anti-asthmatic activity against ovalbumin-induced asthmatic mouse model assessed as infiltration of inflammatory cells in the perivascular and peribronchiolar region of lungs at 20 mg/kg, po administered once daily for 7 days by H and E staining based light microscopic analysis; format: functional, organism-based; settings: time 7.0 day
Mus musculus [12] = assay: Anti-asthmatic activity against ovalbumin-induced asthmatic mouse model assessed as decrease in IgE level in serum administered orally once daily for 7 days by ELISA; format: functional, organism-based; settings: dose 10-20 mg/kg, route po, time 7.0 day, DDE = dose-dependent effect
Mus musculus [13] = assay: Anti-asthmatic activity against ovalbumin-induced asthmatic mouse model assessed as decrease in IL-13 level in BALF administered orally once daily for 7 days by ELISA; format: functional, organism-based; settings: dose 10-20 mg/kg, route po, time 7.0 day, DDE = dose-dependent effect
Mus musculus [14] = assay: Anti-asthmatic activity against ovalbumin-induced asthmatic mouse model assessed as infiltration of inflammatory cells in the perivascular and peribronchiolar region of lungs at 10 to 20 mg/kg, po administered once daily for 7 days by H and E staining based light microscopic analysis; format: functional, organism-based; settings: dose 10-20 mg/kg, time 7.0 day
Mus musculus [15] = assay: Anti-asthmatic activity against ovalbumin-induced asthmatic mouse model assessed as decrease in IL-4 level in BALF administered orally once daily for 7 days by ELISA; format: functional, organism-based; settings: dose 10-20 mg/kg, route po, time 7.0 day, DDE = dose-dependent effect
Mus musculus [16] = assay: Increase in beta2 adrenoceptor expression in bronchus in ovalbumin-induced asthmatic mouse model administered orally once daily for 7 days by Western blot analysis; format: functional; settings: dose 10-20 mg/kg, route po, time 7.0 day, DDE = dose-dependent effect
Mus musculus [17] = assay: Decrease in CysLT receptor expression in bronchus in ovalbumin-induced asthmatic mouse model administered orally once daily for 7 days by Western blot analysis; format: functional; settings: dose 10-20 mg/kg, route po, time 7.0 day, DDE = dose-dependent effect
[18] = target: T1, Uracil nucleotide/cysteinyl leukotriene receptor; assay: Binding affinity to immobilized Halo tag-fused CysLT receptor (unknown origin) expressed in Escherichia coli BL21 (DE3) assessed as dissociation rate constant by receptor chromatography
[19] = target: T1, Uracil nucleotide/cysteinyl leukotriene receptor; remark: listed apart in the source
Description: Binding affinity to immobilized Halo tag-fused CysLT receptor (unknown origin) expressed in Escherichia coli BL21 (DE3) assessed as association rate constant by receptor chromatography

T1 sequence (Q13304 whole entry): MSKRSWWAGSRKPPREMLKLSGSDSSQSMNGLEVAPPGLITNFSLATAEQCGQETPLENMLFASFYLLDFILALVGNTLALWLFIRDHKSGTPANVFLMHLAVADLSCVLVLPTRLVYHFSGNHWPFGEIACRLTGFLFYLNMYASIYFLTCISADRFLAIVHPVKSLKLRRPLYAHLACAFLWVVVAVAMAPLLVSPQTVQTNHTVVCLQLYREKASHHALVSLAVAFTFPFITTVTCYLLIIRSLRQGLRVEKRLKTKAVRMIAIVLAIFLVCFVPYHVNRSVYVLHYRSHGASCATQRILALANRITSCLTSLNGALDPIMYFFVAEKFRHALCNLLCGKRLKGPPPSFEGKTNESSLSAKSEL

Row | Compound | Retention time [1] | Retention time [7] | K [8] | Kd [9] | Ka [10] | Kd [18] | Ka [19] | further results
1 | CC(c1cc2ccccc2s1)N(O)C(N)=O (stereo unspecified) | 3.5 min | – | – | – | – | – | – | –
2 | CN(C)C(=O)Oc1cc(OC(=O)N(C)C)cc(C(O)CNC(C)(C)C)c1 (stereo unspecified) | – | 4.1 min | – | – | – | – | – | Activity (Mus musculus [2]): Active; Activity (Mus musculus [3]): Active; Activity (Mus musculus [4]): Active; Activity (Mus musculus [5]): Active; Activity (Mus musculus [6]): Active
3 | CNC(C)Cc1ccccc1OC (stereo unspecified) [METHOXYPHENAMINE] | – | 3.6 min | 0.5 10^4/M | 0.98 s⁻¹ | 1.93 10^5/M/s | – | – | –
4 | CC1(C)[C@@H](O)CC[C@]2(C)[C@H]3C(=O)C=C4[C@@H]5C[C@@](C)(C(=O)O)CC[C@]5(C)CC[C@@]4(C)[C@]3(C)CC[C@@H]12 | – | – | – | – | – | – | – | Activity (Mus musculus [11]): Active
5 | CC1(C)[C@@H](O)CC[C@]2(C)[C@H]3C(=O)C=C4[C@@H]5C[C@@](C)(C(=O)NCCc6ccc(O)cc6)CC[C@]5(C)CC[C@@]4(C)[C@]3(C)CC[C@@H]12 | – | – | 6.57 10^4/M | 7.52 s⁻¹ | 4.94 10^5/M/s | 17.2 s⁻¹ | 4.85 10^5/M/s | Activity (Mus musculus [12]): Dde; Activity (Mus musculus [13]): Dde; Activity (Mus musculus [14]): Active; Activity (Mus musculus [15]): Dde; Activity (Mus musculus [16]): Dde; inhibition (Mus musculus [17]): Dde
6 | CC(C)(O)c1ccccc1CC[C@@H](SCC1(CC(=O)[O-])CC1)c1cccc(/C=C/c2ccc3ccc(Cl)cc3n2)c1.[Na+] [MONTELUKAST SODIUM] | 8.7 min | – | – | – | – | 12.6 s⁻¹ | 5.18 10^5/M/s | –
